Experiments:
[1] = test system: Mice (C57/B6J) fed with high-fat food; conditions: 20 weeks old
Description: Mice (C57/B6J, 8 weeks old male) were divided into 4 groups (5 animals each), and the first group (DB) was freely fed with ordinary food (CertifiedDiet “MF” manufactured by Oriental Yeast Co., ltd.). The second group (HFD) was freely fed with high-fat food (High Fat Diet 32, manufactured by CLEA Japan, Inc.), […].
When the mouse was 20 weeks old, the body weight, the liver weight, the serum aspartate aminotransferase (AST), the alanine aminotransferase (ALT), the serum triglyceride (TG), the free fatty acid value (FFA) and the total cholesterol value (T-cho) were measured.

[2] = test system: subjects who had NAFLD in 31 IU/L or more of ALT; conditions: 300 mg per day oral
[3] = HFD6 and HFD60 groups in comparison to HFD group
[4] = high-fat food, glutathione 6 and 60 mg/kg/day in water

**Q.** `N[C@@H](CCC(=O)N[C@@H](CS)C(=O)NCC(=O)O)C(=O)O` [glutathione] was tested. Which “FFA (free fatty acid value)” value [1, 3] did it give?
**A.** significant decrease

**Q.** What about the “T-cho (total cholesterol value)” value [1, 3] of the same compound?
**A.** significant decrease

**Q.** What about the liver weight [1, 4] of the same compound?
**A.** decreased dependently on the concentration

**Q.** What about the “ratio of liver weight/body weight” value [1, 4] of the same compound?
**A.** decrease of the body weight ratio was also recognized

**Q.** And the body weight ([1]; high-fat food, glutathione 6 or 60 mg/kg/day in water)?
**A.** decrease of the body weight was recognized

**Q.** What about the “TG (triglyceride value)” value ([1]; serum, HFD6 and HFD60 groups in comparison to HFD group) of the same compound?
**A.** significant decrease

**Q.** What about the “FibroScan (after treatment) CAP” value ([2]; after treatment, individual subject per table row) of the same compound?
**A.** 280 dBe

**Q.** What about the “improvement of ALT after administration in comparison to ALT before the administration (0 wk)” value ([2]; Case IDs 1 to 9 of 16 subjects, at any week after initiation) of the same compound?
**A.** ≥ 20%

From patent US20190125822A1, “COMPOSITION FOR IMPROVING OR PREVENTING NONALCOHOLIC FATTY LIVER” (KOHJIN LIFE SCIENCES CO., LTD., priority 2015, published 2019)
